Mass density, refractive index and excess molar enthalpy data for 13 compounds are collected here from the NIST ThermoML archive (doi:10.1021/je100095p).

For data set [1] the following is noted: 298.15 K; 101.33 kPa; Liquid; Vibrating tube method.
The nature of data set [2]: refractive index (Na D-line) (dimensionless). To be noted: 298.15 K; 101.33 kPa; Liquid; Standard Abbe refractometry.
The nature of data set [3]: excess molar enthalpy (molar enthalpy of mixing); xn = mol fraction of the nth substance listed. To be noted: 298.15 K, 101 kPa, Liquid, Calvet calorimetry.

The structures appear in SMILES notation. ± gives the expanded uncertainty stated by the source.

As usually defined, the mass density is the mass of a sample divided by its volume. In general, refractive index refers to a measure of how strongly the sample bends light. For `CO` [methanol], the mass density in data set [1] worked out at 786.5 ± 0.15 kg/m3. For the same compound, in data set [2], the refractive index came out at 1.3266 ± 0.0005.

In the case of `CCO` [ethanol], the mass density in data set [1] is 785.15 ± 0.12 kg/m3. Besides, in data set [2], the refractive index was 1.3595 ± 0.0005.

In the case of `OCc1ccccc1` [benzenemethanol], the mass density in data set [1] came out at 1041.99 ± 0.26 kg/m3. Also, in data set [2], the refractive index was 1.5381 ± 0.0005.

For the compound `CCCCO` [butan-1-ol], the mass density in data set [1] is recorded as 805.75 ± 0.12 kg/m3. Also, the refractive index in data set [2] was determined as 1.3974 ± 0.0005.

`OCc1ccccc1` [benzenemethanol] + CCCCCO: the excess molar enthalpy was 0.0229 ± 0.000574 kcal/mol in data set [3] (x1 = 0.1044); 0.0403 ± 0.000932 kcal/mol in data set [3] (x1 = 0.1968); 0.054 ± 0.00122 kcal/mol in data set [3] (x1 = 0.2902); 0.0635 ± 0.00141 kcal/mol in data set [3] (x1 = 0.3864); 0.0681 ± 0.00151 kcal/mol in data set [3] (x1 = 0.4838); 0.0648 ± 0.00143 kcal/mol in data set [3] (x1 = 0.5999). The excess molar enthalpy in data set [3] (x1 = 0.6988) amounted to 0.0576 ± 0.00129 kcal/mol; in data set [3] (x1 = 0.7995), 0.0444 ± 0.001 kcal/mol; in data set [3] (x1 = 0.8992), 0.0253 ± 0.000621 kcal/mol.

As for `OCc1ccccc1` [benzenemethanol] + CCCCO, the excess molar enthalpy is 0.0203 ± 0.000526 kcal/mol in data set [3] (x1 = 0.0976); 0.0356 ± 0.000837 kcal/mol in data set [3] (x1 = 0.1973); 0.0469 ± 0.00105 kcal/mol in data set [3] (x1 = 0.295); 0.0528 ± 0.0012 kcal/mol in data set [3] (x1 = 0.396); 0.0552 ± 0.00124 kcal/mol in data set [3] (x1 = 0.4931); 0.0507 ± 0.00115 kcal/mol in data set [3] (x1 = 0.6029). For the same compound, the excess molar enthalpy in data set [3] (x1 = 0.7039) came to 0.0428 ± 0.00098 kcal/mol; in data set [3] (x1 = 0.8026), 0.0317 ± 0.000741 kcal/mol; in data set [3] (x1 = 0.9017) it was 0.0174 ± 0.000454 kcal/mol.

Regarding `OCc1ccccc1` [benzenemethanol] + CCCCCCO, the excess molar enthalpy in data set [3] (x1 = 0.0954) was 0.025 ± 0.000621 kcal/mol; in data set [3] (x1 = 0.1959), 0.0473 ± 0.00108 kcal/mol; in data set [3] (x1 = 0.291) it was 0.0647 ± 0.00143 kcal/mol; in data set [3] (x1 = 0.3901), 0.0775 ± 0.0017 kcal/mol; in data set [3] (x1 = 0.5072), 0.0822 ± 0.00182 kcal/mol; in data set [3] (x1 = 0.598) it was 0.0818 ± 0.00179 kcal/mol. Further, the excess molar enthalpy is 0.074 ± 0.00163 kcal/mol in data set [3] (x1 = 0.6996), 0.0576 ± 0.00129 kcal/mol in data set [3] (x1 = 0.8022) and 0.0348 ± 0.000813 kcal/mol in data set [3] (x1 = 0.8986).

As to `CCCCCCO` [hexan-1-ol], in data set [1], the mass density worked out at 815.2 ± 0.64 kg/m3. Besides, in data set [2], the refractive index stood at 1.4165 ± 0.0006.

As to `OCc1ccccc1` [benzenemethanol] + CCO, the excess molar enthalpy in data set [3] (x1 = 0.0746) turned out to be 0.0175 ± 0.000454 kcal/mol; in data set [3] (x1 = 0.1514), 0.0312 ± 0.000741 kcal/mol; in data set [3] (x1 = 0.2275), 0.041 ± 0.000932 kcal/mol; in data set [3] (x1 = 0.3029) it was 0.0474 ± 0.00108 kcal/mol; in data set [3] (x1 = 0.3785), 0.0512 ± 0.00115 kcal/mol; in data set [3] (x1 = 0.4855), 0.0533 ± 0.0012 kcal/mol. Further, the excess molar enthalpy in data set [3] (x1 = 0.5857) is 0.0497 ± 0.00112 kcal/mol; in data set [3] (x1 = 0.6883), 0.0422 ± 0.000956 kcal/mol; in data set [3] (x1 = 0.7915), 0.0309 ± 0.000741 kcal/mol; in data set [3] (x1 = 0.8949), 0.0171 ± 0.000454 kcal/mol.

In the case of `CCCCCO` [pentan-1-ol], the mass density in data set [1] is 810.88 ± 0.24 kg/m3. Further, the refractive index in data set [2] is 1.4088 ± 0.0005.

With `OCc1ccccc1` [benzenemethanol] + CO, the excess molar enthalpy in data set [3] (x1 = 0.07) was -0.00363 ± 0.000215 kcal/mol; in data set [3] (x1 = 0.1388) it was -0.00798 ± 0.000287 kcal/mol; in data set [3] (x1 = 0.2057) it was -0.0136 ± 0.000382 kcal/mol; in data set [3] (x1 = 0.2728), -0.0189 ± 0.000478 kcal/mol; in data set [3] (x1 = 0.3404), -0.024 ± 0.000598 kcal/mol; in data set [3] (x1 = 0.3992), -0.0286 ± 0.000693 kcal/mol. In addition, the excess molar enthalpy in data set [3] (x1 = 0.4995) is -0.0337 ± 0.000789 kcal/mol; in data set [3] (x1 = 0.5964), -0.0345 ± 0.000813 kcal/mol; in data set [3] (x1 = 0.6972) it was -0.0325 ± 0.000765 kcal/mol; in data set [3] (x1 = 0.7998) it was -0.0258 ± 0.000621 kcal/mol; in data set [3] (x1 = 0.9028), -0.0147 ± 0.000406 kcal/mol.

As for `OCc1ccccc1` [benzenemethanol] + CCCO, the excess molar enthalpy in data set [3] (x1 = 0.0984) stood at 0.0116 ± 0.000335 kcal/mol; in data set [3] (x1 = 0.1964), 0.0202 ± 0.000502 kcal/mol; in data set [3] (x1 = 0.2873), 0.0255 ± 0.000621 kcal/mol; in data set [3] (x1 = 0.3999) it was 0.0295 ± 0.000693 kcal/mol; in data set [3] (x1 = 0.4987), 0.0284 ± 0.000669 kcal/mol; in data set [3] (x1 = 0.5993) it was 0.0256 ± 0.000621 kcal/mol. Further, the excess molar enthalpy in data set [3] (x1 = 0.6983) stood at 0.0207 ± 0.000526 kcal/mol; in data set [3] (x1 = 0.7996) it was 0.0147 ± 0.000406 kcal/mol; in data set [3] (x1 = 0.8988), 0.00772 ± 0.000263 kcal/mol.

As for `CCCO` [propan-1-ol], the mass density in data set [1] stood at 799.51 ± 0.12 kg/m3. Moreover, in data set [2], the refractive index is listed as 1.3833 ± 0.0005.
